Measured values taken from patent US8541588B2, “Sulfonamide derivatives” (Pfizer Limited, priority 2009, dated 2013).

Biological target: T1, Nav1.7 (or SCN9A) channel; HEK cells stably transfected with hSCN9A (Homo sapiens, UniProt Q15858)
T1 construct: expressed in transfected cells
Assay: Nav1.7 block, PatchXpress 7000 automated whole-cell voltage clamp, estimated IC50 (EIC50)
Assay type: cell-based
Conditions: PatchXpress platform; hSCN9A HEK cells held at V1/2 of inactivation; estimated IC50

T1 sequence (Q15858 whole entry): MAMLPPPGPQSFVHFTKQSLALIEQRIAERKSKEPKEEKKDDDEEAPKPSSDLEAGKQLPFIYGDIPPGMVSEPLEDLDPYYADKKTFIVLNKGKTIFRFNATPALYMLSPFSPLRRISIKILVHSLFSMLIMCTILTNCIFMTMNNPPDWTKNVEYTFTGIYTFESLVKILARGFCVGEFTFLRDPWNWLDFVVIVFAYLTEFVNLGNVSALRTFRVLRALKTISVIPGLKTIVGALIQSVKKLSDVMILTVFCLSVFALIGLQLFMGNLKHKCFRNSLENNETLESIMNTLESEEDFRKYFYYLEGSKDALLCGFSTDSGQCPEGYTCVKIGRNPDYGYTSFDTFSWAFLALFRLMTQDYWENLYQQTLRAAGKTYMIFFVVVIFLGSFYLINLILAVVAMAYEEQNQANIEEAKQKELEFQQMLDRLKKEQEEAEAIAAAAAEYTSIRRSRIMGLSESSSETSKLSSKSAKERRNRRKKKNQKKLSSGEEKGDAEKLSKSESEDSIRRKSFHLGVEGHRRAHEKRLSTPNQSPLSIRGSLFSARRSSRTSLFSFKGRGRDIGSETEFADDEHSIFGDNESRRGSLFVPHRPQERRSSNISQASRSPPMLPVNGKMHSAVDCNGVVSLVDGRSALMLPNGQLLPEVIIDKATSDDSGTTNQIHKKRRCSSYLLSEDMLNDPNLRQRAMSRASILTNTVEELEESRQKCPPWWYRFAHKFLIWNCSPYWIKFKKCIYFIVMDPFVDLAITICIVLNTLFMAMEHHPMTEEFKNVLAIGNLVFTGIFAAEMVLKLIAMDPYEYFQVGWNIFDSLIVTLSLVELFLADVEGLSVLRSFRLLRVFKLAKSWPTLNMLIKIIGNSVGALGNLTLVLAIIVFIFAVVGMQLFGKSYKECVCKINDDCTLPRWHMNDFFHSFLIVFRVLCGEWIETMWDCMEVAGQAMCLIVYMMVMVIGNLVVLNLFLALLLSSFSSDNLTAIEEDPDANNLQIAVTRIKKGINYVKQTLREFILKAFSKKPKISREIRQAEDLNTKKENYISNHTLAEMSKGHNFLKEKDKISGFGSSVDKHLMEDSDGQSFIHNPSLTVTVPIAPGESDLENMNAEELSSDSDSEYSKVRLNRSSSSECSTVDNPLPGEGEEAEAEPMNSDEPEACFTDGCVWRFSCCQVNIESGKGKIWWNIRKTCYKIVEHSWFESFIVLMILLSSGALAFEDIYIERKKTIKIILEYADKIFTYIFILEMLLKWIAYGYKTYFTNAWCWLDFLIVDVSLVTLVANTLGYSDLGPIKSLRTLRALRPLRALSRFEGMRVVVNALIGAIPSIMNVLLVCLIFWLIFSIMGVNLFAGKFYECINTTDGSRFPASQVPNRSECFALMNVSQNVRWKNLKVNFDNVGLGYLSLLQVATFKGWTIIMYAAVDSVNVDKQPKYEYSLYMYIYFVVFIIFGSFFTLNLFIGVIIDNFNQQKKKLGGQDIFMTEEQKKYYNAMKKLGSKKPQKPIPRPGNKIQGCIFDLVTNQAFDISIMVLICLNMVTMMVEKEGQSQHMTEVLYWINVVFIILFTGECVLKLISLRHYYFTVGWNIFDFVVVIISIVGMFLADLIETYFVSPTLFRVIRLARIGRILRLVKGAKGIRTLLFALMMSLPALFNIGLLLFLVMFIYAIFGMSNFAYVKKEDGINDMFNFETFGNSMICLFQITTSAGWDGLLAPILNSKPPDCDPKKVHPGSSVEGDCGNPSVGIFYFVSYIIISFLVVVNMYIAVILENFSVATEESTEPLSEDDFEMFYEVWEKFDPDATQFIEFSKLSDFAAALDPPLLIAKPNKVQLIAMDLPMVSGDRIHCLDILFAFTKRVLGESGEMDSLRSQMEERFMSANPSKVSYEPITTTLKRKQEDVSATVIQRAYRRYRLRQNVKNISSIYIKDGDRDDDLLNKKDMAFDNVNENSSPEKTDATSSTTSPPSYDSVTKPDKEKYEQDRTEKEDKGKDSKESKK

Structure (SMILES)	IC50
O=S(=O)(Nc1nccs1)c1ccc(Oc2cc(C(F)(F)F)nn2-c2cc(F)ccc2F)c(F)c1 [Example 228, 4-[2-(2,5-difluoro-phenyl)-5-trifluoromethyl-2H-pyrazol-3-yloxy]-3-fluoro-N-thiazol-2-yl-benzenesulfonamide]	570 nM
O=S(=O)(Nc1nccs1)c1ccc(Oc2cc(C(F)(F)F)nn2-c2ccccc2)c(F)c1 [Example 229, 3-fluoro-4-(2-phenyl-5-trifluoromethyl-2H-pyrazol-3-yloxy)-N-thiazol-2-yl-benzenesulfonamide]	120 nM
O=S(=O)(Nc1nccs1)c1ccc(Oc2cc(C(F)(F)F)nn2-c2ccccc2F)c(F)c1 [Example 230, 3-fluoro-4-[2-(2-fluoro-phenyl)-5-trifluoromethyl-2H-pyrazol-3-yloxy]-N-thiazol-2-yl-benzenesulfonamide]	710 nM
Cc1cc(Oc2ccc(S(=O)(=O)Nc3nccs3)cc2F)n(-c2ccccc2)n1 [Example 231, 3-fluoro-4-(5-methyl-2-phenyl-2H-pyrazol-3-yloxy)-N-thiazol-2-yl-benzenesulfonamide]	470 nM
O=S(=O)(Nc1nccs1)c1ccc(Oc2ccn(Cc3ccc(Cl)cc3)n2)c(F)c1 [Example 232, 4-[1-(4-chloro-benzyl)-1H-pyrazol-3-yloxy]-3-fluoro-N-thiazol-2-yl-benzenesulfonamide]	1870 nM
Cn1cc(-c2ccccc2)c(Oc2ccc(S(=O)(=O)Nc3nccs3)cc2F)n1 [Example 233, 3-fluoro-4-(1-methyl-4-phenyl-1H-pyrazol-3-yloxy)-N-(thiazol-2-yl)benzenesulfonamide]	3490 nM
COCc1ccc(Oc2ccc(S(=O)(=O)Nc3nccs3)cc2F)c(-c2ccnn2C)c1 [Example 234, 3-fluoro-4-(4-(methoxymethyl)-2-(1-methyl-1H-pyrazol-5-yl)phenoxy)-N-(thiazol-2-yl)benzenesulfonamide]	90 nM
O=S(=O)(Nc1nccs1)c1ccc(Oc2cnn(Cc3ccc(Cl)cc3)c2)c(F)c1 [Example 235, 4-(1-(4-chlorobenzyl)-1H-pyrazol-4-yloxy)-3-fluoro-N-(thiazol-2-yl)benzenesulfonamide]	760 nM
O=S(=O)(Nc1nccs1)c1ccc(Oc2ncncc2-c2ccccc2)c(F)c1 [Example 236, 3-fluoro-4-(5-phenylpyrimidin-4-yloxy)-N-(thiazol-2-yl)benzenesulfonamide]	13900 nM
O=S(=O)(Nc1nccs1)c1ccc(Oc2ccc(F)cc2-c2ccnn2CCO)c(F)c1 [Example 237, 3-fluoro-4-{4-fluoro-2-[1-(2-hydroxyethyl)-1H-pyrazol-5-yl]phenoxy}-N-1,3-thiazol-2-ylbenzenesulfonamide]	210 nM
O=C(O)Cn1nccc1-c1cc(F)ccc1Oc1ccc(S(=O)(=O)Nc2nccs2)cc1F [Example 238, 2-(5-(5-fluoro-2-(2-fluoro-4-(N-thiazol-2-ylsulfamoyl)phenoxy)phenyl)-1H-pyrazol-1-yl)acetic acid]	2210 nM
CN(C)C(=O)Cn1nccc1-c1cc(F)ccc1Oc1ccc(S(=O)(=O)Nc2nccs2)cc1F [Example 239, 2-(5-(5-fluoro-2-(2-fluoro-4-(N-thiazol-2-ylsulfamoyl)phenoxy)phenyl)-1H-pyrazol-1-yl)-N,N-dimethylacetamide]	1900 nM
CC(C)(C)n1nc(Cc2ccc(Cl)cc2)cc1Oc1ccc(S(=O)(=O)Nc2nccs2)cc1F [Example 240, 4-[2-tert-butyl-5-(4-chloro-benzyl)-2H-pyrazol-3-yloxy]-3-fluoro-N-thiazol-2-yl-benzenesulfonamide]	1980 nM
Cn1nc(Cc2ccc(Cl)cc2)cc1Oc1ccc(S(=O)(=O)Nc2nccs2)cc1F [Example 241, 4-[5-(4-chloro-benzyl)-2-methyl-2H-pyrazol-3-yloxy]-3-fluoro-N-thiazol-2-yl-benzenesulfonamide]	1470 nM
O=S(=O)(Nc1nccs1)c1ccc(Oc2ccccc2-c2ccccc2)c(F)c1 [Example 242, 4-(biphenyl-2-yloxy)-3-fluoro-N-thiazol-2-yl-benzenesulfonamide]	120 nM
O=S(=O)(Nc1nccs1)c1ccc(Oc2cc(Cc3ccc(Cl)cc3)n[nH]2)c(F)c1 [Example 243, 4-(3-(4-chlorobenzyl)-1H-pyrazol-5-yloxy)-3-fluoro-N-(thiazol-2-yl)benzenesulfonamide]	3860 nM
Cc1c(Cl)ccc(Oc2ccc(S(=O)(=O)Nc3nccs3)cc2F)c1-c1nnco1 [Example 244, 4-(4-chloro-3-methyl-2-[1,3,4]oxadiazol-2-yl-phenoxy)-3-fluoro-N-thiazol-2-yl-benzenesulfonamide]	1790 nM
CC(C)(C)n1nc(C(F)(F)F)cc1-c1ccc(Oc2ccc(S(=O)(=O)Nc3nccs3)cc2F)cc1 [Example 245, 4-[4-(2-tert-butyl-5-trifluoromethyl-2H-pyrazol-3-yl)-phenoxy]-3-fluoro-N-thiazol-2-yl-benzenesulfonamide]	1040 nM
O=S(=O)(Nc1nccs1)c1ccc(Oc2ccc(-c3cc(C(F)(F)F)n[nH]3)cc2)c(F)c1 [Example 246, 3-fluoro-N-(thiazol-2-yl)-4-(4-(3-(trifluoromethyl)-1H-pyrazol-5-yl)phenoxy)benzenesulfonamide]	3760 nM
O=S(=O)(Nc1nccs1)c1ccc(Oc2ccc(-c3ccccc3)cc2)c(F)c1 [Example 247, 4-(biphenyl-4-yloxy)-3-fluoro-N-thiazol-2-yl-benzenesulfonamide]	2950 nM

Structure (SMILES)	IC50
Cc1cc(C)n(-c2ccc(Oc3ccc(S(=O)(=O)Nc4nccs4)cc3F)cc2)n1 [Example 248, 4-[4-(3,5-dimethyl-pyrazol-1-yl)-phenoxy]-3-fluoro-N-thiazol-2-yl-benzenesulfonamide]	2780 nM
NC(=O)c1cc(S(=O)(=O)Nc2nccs2)ccc1Oc1cnn(Cc2ccc(Cl)cc2)c1 [Example 249, 2-(1-(4-chlorobenzyl)-1H-pyrazol-4-yloxy)-5-(N-thiazol-2-ylsulfamoyl)benzamide]	2400 nM
NC(=O)c1cc(S(=O)(=O)Nc2nccs2)ccc1Oc1ccccc1-c1ccccc1 [Example 250, 2-(biphenyl-2-yloxy)-5-(N-thiazol-2-ylsulfamoyl)benzamide]	1850 nM
O=S(=O)(Nc1nncs1)c1ccc(Oc2ccccc2-c2ccccc2)c(F)c1 [Example 251, 4-(biphenyl-2-yloxy)-3-fluoro-N-(1,3,4-thiadiazol-2-yl)benzenesulfonamide]	2540 nM
Cc1nn(Cc2ccccc2)cc1-c1ccccc1Oc1ccc(S(=O)(=O)Nc2ncns2)cc1F [Example 252, 4-(2-(1-benzyl-3-methyl-1H-pyrazol-4-yl)phenoxy)-3-fluoro-N-(1,2,4-thiadiazol-5-yl)benzenesulfonamide]	24500 nM
O=S(=O)(Nc1ncns1)c1ccc(Oc2cc(C(F)(F)F)nn2-c2cc(F)ccc2F)c(F)c1 [Example 253, 4-[2-(2,5-difluoro-phenyl)-5-trifluoromethyl-2H-pyrazol-3-yloxy]-3-fluoro-N-1,2,4-thiadiazol-5-yl-benzenesulfonamide]	630 nM
O=S(=O)(Nc1ncns1)c1ccc(Oc2cc(C(F)(F)F)nn2-c2ccccc2)c(F)c1 [Example 254, 3-fluoro-4-(2-phenyl-5-trifluoromethyl-2H-pyrazol-3-yloxy)-N-1,2,4-thiadiazol-5-yl-benzenesulfonamide]	340 nM
O=S(=O)(Nc1ncns1)c1ccc(Oc2cc(C(F)(F)F)nn2-c2ccccc2F)c(F)c1 [Example 255, 3-fluoro-4-[2-(2-fluoro-phenyl)-5-trifluoromethyl-2H-pyrazol-3-yloxy]-N-1,2,4-thiadiazol-5-yl-benzenesulfonamide]	490 nM
Cc1cc(S(=O)(=O)Nc2ncns2)ccc1Oc1ccccc1-c1ccccc1 [Example 256, 4-(biphenyl-2-yloxy)-3-methyl-N-1,2,4-thiadiazol-5-ylbenzenesulfonamide]	220 nM
Cc1cc(S(=O)(=O)Nc2ncns2)ccc1Oc1ccn(Cc2ccc(Cl)cc2)n1 [Example 257, 4-{[1-(4-chlorobenzyl)-1H-pyrazol-3-yl]oxy}-3-methyl-N-1,2,4-thiadiazol-5-ylbenzenesulfonamide]	2200 nM
Cc1cc(S(=O)(=O)Nc2nccs2)ccc1Oc1ccccc1-c1ccccc1 [Example 258, 4-(biphenyl-2-yloxy)-3-methyl-N-1,3-thiazol-2-ylbenzenesulfonamide]	1020 nM
COc1cc(S(=O)(=O)Nc2ncns2)ccc1Oc1ccn(Cc2ccc(Cl)cc2)n1 [Example 259, 4-{[1-(4-chlorobenzyl)-1H-pyrazol-3-yl]oxy}-3-methoxy-N-1,2,4-thiadiazol-5-ylbenzenesulfonamide]	16500 nM
O=S(=O)(Nc1ncns1)c1ccc(Oc2ccccc2-c2ccccc2)cc1C(F)(F)F [Example 260, 4-(biphenyl-2-yloxy)-N-1,2,4-thiadiazol-5-yl-2-(trifluoromethyl)benzenesulfonamide]	15900 nM
Cc1cc(Oc2ccccc2-c2ccccc2)ccc1S(=O)(=O)Nc1ncns1 [Example 261, 4-(biphenyl-2-yloxy)-2-methyl-N-1,2,4-thiadiazol-5-ylbenzenesulfonamide]	470 nM
COc1cc(S(=O)(=O)Nc2ncns2)ccc1Oc1ccccc1-c1ccccc1 [Example 262, 4-(biphenyl-2-yloxy)-3-methoxy-N-1,2,4-thiadiazol-5-ylbenzenesulfonamide]	1320 nM
O=S(=O)(Nc1ncns1)c1ccc(Oc2ccccc2-c2ccccc2)cc1Cl [Example 263, 4-(biphenyl-2-yloxy)-2-chloro-N-1,2,4-thiadiazol-5-ylbenzenesulfonamide]	1440 nM
O=S(=O)(Nc1ncns1)c1cc(F)c(Oc2ccccc2-c2ccccc2)c(F)c1 [Example 264, 4-(biphenyl-2-yloxy)-3,5-difluoro-N-1,2,4-thiadiazol-5-ylbenzenesulfonamide]	2380 nM
O=S(=O)(Nc1ncns1)c1cc(F)c(Oc2ccn(Cc3ccc(Cl)cc3)n2)c(F)c1 [Example 265, 4-{[1-(4-chlorobenzyl)-1H-pyrazol-3-yl]oxy}-3,5-difluoro-N-1,2,4-thiadiazol-5-ylbenzenesulfonamide]	38900 nM
O=S(=O)(Nc1ncns1)c1cc(F)c(Oc2ccccc2-c2ccccc2)cc1F [Example 266, 4-(biphenyl-2-yloxy)-2,5-difluoro-N-1,2,4-thiadiazol-5-ylbenzenesulfonamide]	100 nM
